Measured values published in patent US11547681B2, “N-acylethanolamide derivatives and uses thereof” (ELIEM THERAPEUTICS, INC., priority 2016, dated 2023).

Assay: in vitro
Conditions: for Concentration (μM) of analyte PEA, 0 min / Concentration (μM) of analyte PEA, 10 min / Concentration (μM) of analyte PEA, 20 min / Concentration (μM) of analyte PEA, 30 min / Concentration (μM) of analyte PEA, 60 min / % Remaining of Initial (n = 1), 0 min / % Remaining of Initial (n = 1), 10 min / % Remaining of Initial (n = 1), 20 min / % Remaining of Initial (n = 1), 30 min / % Remaining of Initial (n = 1), 60 min: 1 μM; for % Remaining of Initial (n = 1), 0 min: s9, 0 h; for % Remaining of Initial (n = 1), 10 min: s9, 10 min; for % Remaining of Initial (n = 1), 20 min: s9, 20 min; for % Remaining of Initial (n = 1), 30 min: s9, 0.5 h; for % Remaining of Initial (n = 1), 60 min: s9, 1 h; for half-life at 1 μM: s9, Half-life (min)
Experimental: Reaction mixture, minus cofactors, was prepared as described below. Test article was added into the reaction mixture at a final concentration of 1 μM. […] An aliquot of the reaction mixture (without cofactor cocktail) was equilibrated in a shaking water bath at 37° C. for 3 minutes. The reaction was initiated by the addition of cofactor cocktail (see below), and the mixture was then incubated in a shaking water bath at 37° C. Aliquots (100 μL) were withdrawn 0, 10, 20, 30 and 60 minutes. Test article samples were immediately combined with 300 μL of ice-cold acetonitrile containing 1% formic acid. Control samples were immediately combined with 400 μL of ice-cold 50/50 acetonitrile (ACN)/dH2O containing 0.1% formic acid and internal standard to terminate the reaction. Samples were then mixed and centrifuged to precipitate proteins. Calibration standards were prepared in matched matrix. Samples and standards were assayed by LC-MS/MS using electrospray ionization for both the dosed prodrug and the expected drug (PEA). Analytical conditions are outlined in Appendix 8-1. Test article concentration at each time point was compared to the test article concentration at time 0 to determine the percent remaining at each time point. Half-lives were calculated using GraphPad software, fitting to a single-phase exponential decay equation.
Reaction mixture, minus cofactors, was prepared as described below. Test article was added into the reaction mixture at a final concentration of 1 μM. […] An aliquot of the reaction mixture (without cofactor cocktail) was equilibrated in a shaking water bath at 37° C. for 5 minutes. Reaction was initiated by the addition of cofactor cocktail (see below), and mixture was then incubated in a shaking water bath at 37° C. Aliquots (100 μL) were withdrawn at 0, 10, 20, 30, and 60 minutes. Test article samples were immediately combined with 300 μL of ice-cold acetonitrile containing 1% formic acid. Control samples were immediately combined with 400 μL of ice-cold 50/50 acetonitrile (ACN)/dH2O containing 0.1% formic acid and internal standard to terminate the reaction. Samples were then mixed and centrifuged to precipitate proteins. Calibration standards were prepared in matched matrix. Samples and standards were assayed by LC-MS/MS using electrospray ionization for both dosed prodrug and expected drug (PEA). Analytical conditions are outlined in Appendix 10-1. Test article concentration at each time point was compared to test article concentration at time 0 to determine the percent remaining at each time point. Half-lives were calculated using GraphPad software, fitting to a single-phase exponential decay equation.
The reaction mixture, minus cofactors, was prepared as described below. Test article was added into the reaction mixture at a final concentration of 1 μM. […] An aliquot of the reaction mixture (without cofactor cocktail) was equilibrated in a shaking water bath at 37° C. for 3 minutes. Reaction was initiated by the addition of cofactor cocktail (see below), and the mixture was then incubated in a shaking water bath at 37° C. Aliquots (100 μL) were withdrawn at 0, 10, 20, 30, and 60 minutes. Test article samples were immediately combined with 300 μL of ice-cold acetonitrile containing 1% formic acid. Control samples were immediately combined with 400 μL of ice-cold 50/50 acetonitrile (ACN)/dH2O containing 0.1% formic acid and internal standard to terminate the reaction. Samples were then mixed and centrifuged to precipitate proteins. Calibration standards were prepared in matched matrix. Samples and standards were assayed by LC-MS/MS using electrospray ionization for both dosed prodrug and expected drug (PEA). Analytical conditions are outlined in Appendix 13-1. Test article concentration at each time point was compared to the test article concentration at time 0 to determine the percent remaining at each time point.

In the case of `CCCCC/C=C\C/C=C\CCCCCCCC(=O)OCCNC(=O)CCCCCCCCCCCCCCC` [Compound I-6], the “Concentration (μM) of analyte PEA, 0 min” value (both, human) is reported as 0.014 µM, the “Concentration (μM) of analyte PEA, 10 min” value (“Concentration (μM) … 10 min” below) (both, human) is reported as 0.037 µM and the “Concentration (μM) of analyte PEA, 20 min” value (“Concentration (μM) … 20 min” below) (both, human) is reported as 0.022 µM. For the same molecule, the “Concentration (μM) of analyte PEA, 30 min” value (“Concentration (μM) … 30 min” below) (both, human) was 0.022 µM, the “Concentration (μM) of analyte PEA, 60 min” value (“Concentration (μM) … 60 min” below) (both, human) was 0.016 µM and the “% Remaining of Initial (n = 1), 0 min” value (both, human) was 100%. For the same molecule, the “% Remaining of Initial (n = 1), 10 min” value (both, human) was 80%, the “% Remaining of Initial (n = 1), 20 min” value (both, human) was 102% and the “% Remaining of Initial (n = 1), 30 min” value (both, human) was 95%. For the same molecule, the “% Remaining of Initial (n = 1), 60 min” value (both, human) was 77%, the half-life at 1 μM (both, human) was > 60 min and the “Concentration (μM) of analyte PEA, 0 min” value (male, Beagle, dog) was 0.016 µM. For the same molecule, the “Concentration (μM) … 10 min” value (male, Beagle, dog) was 0.044 µM, the “Concentration (μM) … 20 min” value (male, Beagle, dog) was 0.041 µM and the “Concentration (μM) … 30 min” value (male, Beagle, dog) was 0.049 µM. For the same molecule, the “Concentration (μM) … 60 min” value (male, Beagle, dog) was 0.037 µM, the “% Remaining of Initial (n = 1), 0 min” value (male, Beagle, dog) was 100% and the “% Remaining of Initial (n = 1), 10 min” value (male, Beagle, dog) was 101%. The “% Remaining of Initial (n = 1), 20 min” value (male, Beagle, dog) was 106%, the “% Remaining of Initial (n = 1), 30 min” value (male, Beagle, dog) was 102% and the “% Remaining of Initial (n = 1), 60 min” value (male, Beagle, dog) was 110%. For the same molecule, the half-life at 1 μM (male, Beagle, dog) was > 60 min, the “Concentration (μM) of analyte PEA, 0 min” value (male, CD-1, mouse) was 0.030 µM and the “Concentration (μM) … 10 min” value (male, CD-1, mouse) was 0.041 µM. The “Concentration (μM) … 20 min” value (male, CD-1, mouse) was 0.033 µM, the “Concentration (μM) … 30 min” value (male, CD-1, mouse) was 0.031 µM and the “Concentration (μM) … 60 min” value (male, CD-1, mouse) was 0.015 µM. The “% Remaining of Initial (n = 1), 0 min” value (male, CD-1, mouse) was 100%, the “% Remaining of Initial (n = 1), 10 min” value (male, CD-1, mouse) was 87% and the “% Remaining of Initial (n = 1), 20 min” value (male, CD-1, mouse) was 87%. For the same molecule, the “% Remaining of Initial (n = 1), 30 min” value (male, CD-1, mouse) was 99%, the “% Remaining of Initial (n = 1), 60 min” value (male, CD-1, mouse) was 75% and the half-life at 1 μM (male, CD-1, mouse) was > 60 min. For the same molecule, the “Concentration (μM) of analyte PEA, 0 min” value (male, Sprague-Dawley, rat) was 0.020 µM, the “Concentration (μM) … 10 min” value (male, Sprague-Dawley, rat) was 0.035 µM and the “Concentration (μM) … 20 min” value (male, Sprague-Dawley, rat) was 0.021 µM. The “Concentration (μM) … 30 min” value (male, Sprague-Dawley, rat) was 0.021 µM, the “Concentration (μM) … 60 min” value (male, Sprague-Dawley, rat) was 0.013 µM and the “% Remaining of Initial (n = 1), 0 min” value (male, Sprague-Dawley, rat) was 100%. For the same molecule, the “% Remaining of Initial (n = 1), 10 min” value (male, Sprague-Dawley, rat) was 64%, the “% Remaining of Initial (n = 1), 20 min” value (male, Sprague-Dawley, rat) was 82% and the “% Remaining of Initial (n = 1), 30 min” value (male, Sprague-Dawley, rat) was 93%. For the same molecule, the “% Remaining of Initial (n = 1), 60 min” value (male, Sprague-Dawley, rat) was 89% and the half-life at 1 μM (male, Sprague-Dawley, rat) was > 60 min.
